Experiment [1] relates to A549 tumors. Put plainly: In vivo and ex vivo NIRF imaging of tumor targeting in A549 tumor-bearing mice. The note with it: i.v., same fluorescence intensity as DBCO-lipo. As to the method:
All experiments using live animals were performed in compliance with the relevant laws and the institutional guidelines of the Korea Institute of Science and Technology (KIST) and under the approval by the institutional committee. For in vivo and ex vivo experiments, 1.0×10^7 A549 tumor cells were administered to 5-week-old male athymic nude mice (20 g, Institute of Medical Science, Tokyo, Japan) on both flanks by subcutaneous injection. […] DBCO-lipo (10 mg/kg), DBCO-free control liposome (10 mg/kg) or DBCO-fluorescent dye conjugate of the same fluorescence intensity as DBCO-lipo were injected into the tail veins of two A549 tumor-bearing mice. […] Near-infrared (NIR) fluorescence emission at 700 nm was collected and detected with a fast photomultiplier tube (Hamamatsu, Japan) and a time-correlated single photon counting system (Becker and Hickl GmbH, Berlin, Germany). The active tumor targeting characteristics of DBCO-lipo were evaluated by capturing 20 z-section images at 1.0 mm spacing using the Analysis Workstation software (ART Advanced Research Technologies Inc., Montreal, Canada). […] NIR fluorescence images were obtained using a 12-bit CCD (Kodak Image Station 4000 MM, New Haven, Conn., USA) equipped with a Cy5.5 emission filter (600-700 nm; Omega Optical). […] All numerical values were expressed as mean±standard deviation for the three animal groups. […]

Experiment [2] relates to A549 tumors. The experiment is described as follows: Generation of azide groups in tumor tissues (western blot, immunohistochemical staining). Conditions: Ac4ManNAz 0.5, 5, 50 mM intratumoral once daily for 3 days; tumors dissected on day 4. The format is in vivo, mice. As to the method:
Preparation of tumor-bearing mouse models and administration of Ac4ManNAz were performed according to the same method as described above. 24 hours after the injection of Ac4ManNAz (on day 4), the tumors were dissected, transferred into 1 mL of lysis buffer (1% SDS, 100 mM Tris.HCl, pH 7.4) containing protease inhibitor (Complete, EDTA-free), and homogenized using a homogenizer (WiseMix HG-15D, Daihan Scientific, Seoul, Korea). The lysate was incubated at 4° C. for 30 minutes and insoluble debris was removed by centrifuging at 3,000×g for 10 minutes. Protein concentration was measured using the BCA protein assay kit. Staudinger reaction with phosphine-FLAG, SDS-PAGE and western blot analysis were conducted as described above.
The dissected tumor tissues were retrieved and fixed in a 4% (v/v) buffered formalin solution, dehydrated with graded ethanol series, and embedded in paraffin. The paraffin tissues were sliced into 4-μm wide slices and immunohistochemical staining was performed using Histostain®-Plus Brod Spectrum (Invitrogen, CA, USA) in combination with phosphine-FLAG and monoclonal anti-FLAG-HRP antibodies according to the manufacturer's instructions. The paraffin slices were dehydrated, mounted using the Permount SP15-100 Toluene Solution (Fisher Scientific, NJ, USA) mounting medium, and observed with an optical microscope (BX51, Olympus, Tokyo, Japan). […]

For a further experiment, the system named is A549 cells. The experiment is described as follows: Generation of azide groups on A549 cells (Coomassie staining, western blot with phosphine-FLAG). Format: cell-based, human. The note with it: Ac4ManNAz 0.5, 5, 50 μM, 3 days. The procedure: A549 cells in 10 mL of media with no sugar or different concentrations of Ac4ManNAz (final concentrations of 0.5 μM, 5 μM and 50 μM) were seeded onto 100×20 mm polystyrene tissue culture plates at a density of 1.5×10^6 cells per plate and incubated for 3 days. The cells were washed twice with PBS (pH 7.4) and harvested from the plates with a cell scraper. The cells were pelletized by centrifuging at 3,000×g for 5 minutes and the supernatant was discarded. The cell pellets were resuspended in 500 μL of lysis buffer (1% SDS, 100 mM Tris.HCl, pH 7.4) containing protease inhibitor (Complete, EDTA-free) and lysed at 4° C. using a probe-type sonicator. The sonicated lysates were incubated at 4° C. for 30 minutes to further solubilize proteins. Insoluble debris was removed by centrifuging at 3,000×g for 10 minutes. Total soluble protein concentration was determined by the bicinchroninic acid (BCA) protein assay (Pierce, Ill., USA) to be 5 mg/mL. 20 μL of the lysate (5 mg/mL protein) was incubated with 2 μL of phosphine-FLAG (5 mM in PBS, pH 7.4) (Sigma, St. Louis, Mo., USA) at 37° C. for 6 hours. SDS-PAGE loading buffer was added to each sample. Then, aliquots were loaded onto 10% SDS-PAGE after heating at 95° C. […]

Turning to dibenzylcyclooctyne-SETA650 [DBCO-SETA], the “NIRF image brightness in mice” value with A549 tumors [1] was “relatively dim images”.
Turning to `CC(=O)OC[C@H]1OC(OC(C)=O)[C@@H](NC(=O)CN=[N+]=[N-])[C@@H](OC(C)=O)[C@@H]1OC(C)=O` (stereo partly drawn) [Ac4ManNAz, Tetraacetylated N-azidoacetyl-D-mannosamine], the “amount of azide groups in tumor tissues” value in the experiment with A549 tumors [2] is recorded as “increased in a dose-dependent manner”. The “generation of azide groups on cell surface” value with A549 cells is “modified azide groups could be generated on the surface of the A549 cells”.

(Values after US9801943B2, “Method for in vivo targeting of nanoparticles via bioorthogonal copper-free click chemistry” (KOREA INSTITUTE OF SCIENCE AND TECHNOLOGY, priority 2012, dated 2017).)
